Source: article PMC10203105 (Communications Biology, 2023)

T1: AtDHDPR2 (dihydrodipicolinate reductase 2) (Arabidopsis thaliana, UniProt Q8LB01)
T1 construct: gene DAPB2; excludes the 53-amino-acid chloroplast transit peptide; tag cleaved
T1 sequence (Q8LB01 54-349): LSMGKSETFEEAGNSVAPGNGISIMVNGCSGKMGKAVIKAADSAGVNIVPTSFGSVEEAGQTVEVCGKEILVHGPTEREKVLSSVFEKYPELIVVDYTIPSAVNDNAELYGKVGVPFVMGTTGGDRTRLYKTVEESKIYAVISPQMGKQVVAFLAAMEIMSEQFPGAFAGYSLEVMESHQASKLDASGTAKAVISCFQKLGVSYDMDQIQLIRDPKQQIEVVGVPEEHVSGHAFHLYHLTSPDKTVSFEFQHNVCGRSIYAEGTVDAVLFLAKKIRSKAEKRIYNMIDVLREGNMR

T2: AtDHDPR1 (dihydrodipicolinate reductase 1) (Arabidopsis thaliana, UniProt O80574)
T2 construct: gene DAPB1; excludes the first 51 amino acids (chloroplast transit peptide); tag cleaved
T2 sequence (O80574 52-347): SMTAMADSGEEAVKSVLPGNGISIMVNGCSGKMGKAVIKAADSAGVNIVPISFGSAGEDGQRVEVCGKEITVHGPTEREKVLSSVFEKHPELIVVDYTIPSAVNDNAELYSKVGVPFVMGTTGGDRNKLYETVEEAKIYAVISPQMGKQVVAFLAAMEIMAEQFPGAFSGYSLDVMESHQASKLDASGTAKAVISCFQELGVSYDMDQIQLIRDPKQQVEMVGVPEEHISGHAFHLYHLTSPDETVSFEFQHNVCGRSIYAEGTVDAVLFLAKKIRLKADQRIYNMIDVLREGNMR

B1: AtDHDPR1 (dihydrodipicolinate reductase 1) (Arabidopsis thaliana) (protein)
chain: SMTAMADSGEEAVKSVLPGNGISIMVNGCSGKMGKAVIKAADSAGVNIVPISFGSAGEDGQRVEVCGKEITVHGPTEREKVLSSVFEKHPELIVVDYTIPSAVNDNAELYSKVGVPFVMGTTGGDRNKLYETVEEAKIYAVISPQMGKQVVAFLAAMEIMAEQFPGAFSGYSLDVMESHQASKLDASGTAKAVISCFQELGVSYDMDQIQLIRDPKQQVEMVGVPEEHISGHAFHLYHLTSPDETVSFEFQHNVCGRSIYAEGTVDAVLFLAKKIRLKADQRIYNMIDVLREGNMR

Legend:
[1] = target: T1, AtDHDPR2 (dihydrodipicolinate reductase 2); assay: DHDPS-DHDPR coupled spectrophotometric assay (NADPH oxidation, […] nm); format: biochemical
[2] = target: T2, AtDHDPR1 (dihydrodipicolinate reductase 1); assay: as above; format: biochemical
purified protein [3] = substrate: NC(=O)C1=CN([C@@H]2O[C@H](COP(=O)(O)OP(=O)(O)OC[C@H]3O[C@@H](n4cnc5c(N)ncnc54)[C@H](OP(=O)(O)O)[C@@H]3O)[C@@H](O)[C@H]2O)C=CC1; assay: purified protein; settings: varied: cofactor
purified protein [4] = substrate: O=C(O)C1=NC(C(=O)O)CC=C1; assay: purified protein; settings: NADPH

| Molecule | IC50 [1] [µM] | IC50 [2] [µM] | Km (purified protein [3]) [µM] | Km (purified protein [4]) [µM] |
| --- | --- | --- | --- | --- |
| O=C(O)c1cccc(C(=O)O)n1 [2,6-PDC, 2,6-pyridinedicarboxylic acid] | 470 | 140 | – | – |
| B1 | – | – | 16 ± 2.6 | 37 ± 6.5 |
